Consider seven compounds from patent US20040002505A1, “Medicinal compositions for cocominant use as anticancer agent” (priority 2000, published 2004).

Data set [1] concerns Human colon cancer strain Colo320D.M. The experiment in a line: Combined use of E7070 and 5-FU in human colon cancer Colo320D.M. xenograft model. As to conditions: alone or simultaneous; for Toxicity Dead/Treated: E7070 30 mg/kg/day day 1-5, 5-FU 60 mg/kg/day day 1, 5, 9. The text has this: (§1) Cancer Chemother Pharmacol. 1992;30(1):25-30; (ii)Enhancement of vincristine cytotoxicity in drug-resistant cells by simultaneous treatment with onconase, an antitumor ribonuclease. J Natl Cancer Inst. 1996 June 5;88(11):747-53; (iii)Effects of growth hormone and testosterone on cortical bone formation and bone density in aged orchiectomized rats. Bone. 1999 May;24(5):491-7).
Background: A xenograft is tissue or cells of one species grown in another, often human tumour cells in immunodeficient mice.

Data set [2] has as its system Human colon cancer strain HCT15. The settings on record: alone or in combination; for Toxicity Dead/Treated: E7070 30 mg/kg/day QDx5, CPT-11 75 mg/kg/day Q4Dx3; for Tx4 (days) mean ± S.D.: HCT15 xenograft, nude mice, iv, E7070 30 mg/kg/day QDx5 (day 1-5), CPT-11 75 mg/kg/day Q4Dx3 (day 1, 5, 9).
From the text: as §1

In data set [3] the test system is Human colon cancer strain SW620. The settings on record: E7070 25 mg/kg/day day 1-5, CPT-11 62.5 mg/kg/day day 1, 5, 9, alone or simultaneous.
From the text: as §1

Data set [4] relates to Human non-small cell lung cancer LU-99. The settings on record: alone or simultaneous.
From the text: as §1

In data set [5] the test system is Human colon cancer strain HCT15. The experiment in a line: Combined use of E7070 and MMC in human colon cancer HCT15 xenograft model. The settings on record: alone or in combination; for Toxicity Dead/Treated: E7070 25 mg/kg/day QDx5, MMC 4.19 mg/kg/day QDx1; for Tx4 (days) mean ± S.D.: HCT15 xenograft, nude mice, iv, E7070 25 mg/kg/day QDx5 (day 1-5; combination line prints 30 mg/kg/day), MMC 4.19 mg/kg/day QDx1 (day 1).
From the text: as §1

For data set [6] the following is noted: used in combination with E7070; model and data not given.
Data set [7] has as its system Human colon cancer strain HCT15. Kind of data set: Combined use of E7070 and Gemcitabine in human colon cancer HCT15 xenograft model. It is filed as in vivo, nude mouse. The settings on record: used in combination with E7070; no data given.
From the text: as §1

The mark [8] stands for this setting: E7070 25 mg/kg/day day 1-5, CDDP 7.5 mg/kg/day day 1.

Where a name gives a salt, the structure may show the parent alone. Read-outs that look alike come from different tables or passages of the source.

Turning to `O=c1[nH]cc(F)c(=O)[nH]1` [5-FU, 5-fluoro-2,4-(1H,3H)-pyrimidinedione], the “Tx4 (days) mean ± S.D.” value in data set [1] (Colo320D.M. xenograft, nude mice, iv, E7070 30 mg/kg/day QDx5 (day 1-5), 5-FU 60 mg/kg/day Q4Dx3 (day 1, 5, 9)) was determined as 10.0 ± 0.7 days. In data set [1], the “Toxicity Dead/Treated” value was 0/6.

Consider `CCc1c2c(nc3ccc(OC(=O)N4CCC(N5CCCCC5)CC4)cc13)-c1cc3c(c(=O)n1C2)COC(=O)[C@]3(O)CC` [CPT-11, [1,4′-Bipiperidine]-1′-carboxylic acid (S)-4,11-diethyl-3,4,12,14-tetrahydro-4-hydroxy-3,14-dioxo-1H-pyrano-[3′,4′:6,7]-indolizino[1,2-b]quinolin-9-yl ester Hydrochloride trihydrate], for which, in data set [2], the “Toxicity Dead/Treated” value is recorded as 0/6 and the “Tx4 (days) mean ± S.D.” value stood at 17.8 ± 1.0 days. In addition, the “Toxicity Dead/Treated” value in data set [3] is recorded as 0/6.

In the case of `NS(=O)(=O)c1ccc(S(=O)(=O)Nc2cccc3c(Cl)c[nH]c23)cc1` [E7070, N-(3-chloro-1H-indol-7-yl)-4-sulfamoylbenzenesulfonamide], the “Toxicity Dead/Treated” value in data set [4] (setting [8]), in data set [2], in data set [3], in data set [1] and in data set [5] was 0/6 in each case. Further, the “mRTV mean ± S.D.” value in data set [4] (minimum relative tumor volume, E7070 25 mg/kg/day day 1-5, CDDP 7.5 mg/kg/day day 1) was 0.75 ± 0.16; in data set [3] (minimum relative tumor volume, day of minimum in parentheses in the cell), 0.76 ± 0.42(12). The “Tx4 (days) mean ± S.D.” value in data set [2] stood at 18.7 ± 2.0 days; in data set [5], 12.7 ± 2.2 days.

For `CO[C@@]12[C@H](COC(N)=O)C3=C(C(=O)C(C)=C(N)C3=O)N1C[C@@H]1N[C@@H]12` [MMC, [1aS-(1aα,8β,8aα,8bα)]-6-amino-8-[[(aminocarbonyl)oxy]methyl]1,1a,2,8,8a,8b-hexahydro-8a-methoxy-5-methylazirino[2′,3′:3,4]pyrrolo[1,2-a]indole-4,7-dione], in data set [5], the “Toxicity Dead/Treated” value was 0/6 and the “Tx4 (days) mean ± S.D.” value was determined as 16.2 ± 3.4 days.

Consider `COc1cccc2c1C(=O)c1c(O)c3c(c(O)c1C2=O)C[C@@](O)(C(=O)CO)C[C@@H]3O[C@H]1C[C@H](N)[C@H](O)[C@H](C)O1` [doxorubicin, 10-[(3-amino-2,3,6-trideoxy-α-L-lyxo-hexopyranosyl)oxy]-7,8,9,10-tetrahydro-6,8,11-trihydroxy-8-(hydroxyacetyl)-1-methoxy-(8S-cis)-5,12-naphthacenedione], for which, in data set [6], the “synergistic effect, antitumor activity” value is “excellent antitumor activity”.

For `Cl.Nc1ccn([C@@H]2O[C@H](CO)[C@@H](O)C2(F)F)c(=O)n1` [gemcitabine hydrochloride, 2′-deoxy-2′,2′-difluoro-cytidine hydrochloride], the “synergistic effect, antitumor activity” value in data set [7] is “excellent antitumor activity”.

As to cis-diamminedichloroplatinum [CDDP], the “Toxicity Dead/Treated” value in data set [4] (setting [8]) was 0/6. Also, in data set [4] (LU-99 xenograft, nude mice, iv, E7070 25 mg/kg/day QDx5 (day 1-5), CDDP 7.5 mg/kg/day QDx1 (day 1)), the “Tx4 (days) mean ± S.D.” value worked out at 10.7 ± 0.5 days. In addition, the “Toxicity mRBW mean” value in data set [4] (minimum relative body weight, day of minimum in parentheses in the cell, E7070 25 mg/kg/day day 1-5, CDDP 7.5 mg/kg/day day 1) is 0.95(5).
